# Test results from patent US7335645B2, “Effectors of dipeptidyl peptidase IV for topical use” (Probiodrug AG, priority 1999, dated 2008).
# Counter-ions that a name gives are not always drawn.
# Assays:
# [1] = literature statement (Reinhold et al., 1998); cited from earlier work
# plasma-DP IV = molecular target: T1, plasma-DP IV (Rattus norvegicus, UniProt P14740); test: Inhibition of plasma-DP IV after oral administration in healthy Wistar rats; format: in vivo; details: 5 μmol/300 g rat
# T1 construct: from tissue; host or cells: plasma of Wistar rats after oral dosing
# Method: FIG. 1: Systemic action of orally administered DP IV-inhibitors in healthy Wistar rats.
# The course, over time, of the percentage inhibition of plasma-DP IV activity following oral administration of 5 μmol of inhibitor per 300 g of rat (n=2) is shown.
# The inhibition of plasma-DP IV (systemic action) was investigated following oral administration of side chain-modified DP IV-inhibitors ([…]) compared with unmodified inhibitors in healthy Wistar rats.
# PepT1 [2] = test: Transport at PepT1-expressing X. leavis oocytes, two-electrode voltage clamp method; format: cell-based; parameters: unit not given here; details: PepT1-expressing oocytes of X. leavis, n.d. = not detectable
# Method: (§1) Side chain-modified glutamylthiazolidines having a structure H-Glu(X)-Thia were synthesized, with polyethylene glycol or glycine oligomers of various chain lengths being used as X (see Method A for description of synthesis). The binding characteristics of those derivatives and their transportability by the peptide transporter PepT1 were investigated and the Ki values with respect to DP IV were determined (Table 1).
# PepT1 [3] = molecular target: T2, PepT1 (Oryctolagus cuniculus, UniProt P36836); test: Inhibition of 3H-D-Phe-Ala binding to PepT1-expressing P. pastoris cells; details: read-out: EC50: effective concentration inhibiting the binding of 3H-D-Phe-Ala to PepT1-expressing P. pastoris cells by 50%
# T2 construct: expressed in transfected cells
# T2 sequence (P36836 1-707): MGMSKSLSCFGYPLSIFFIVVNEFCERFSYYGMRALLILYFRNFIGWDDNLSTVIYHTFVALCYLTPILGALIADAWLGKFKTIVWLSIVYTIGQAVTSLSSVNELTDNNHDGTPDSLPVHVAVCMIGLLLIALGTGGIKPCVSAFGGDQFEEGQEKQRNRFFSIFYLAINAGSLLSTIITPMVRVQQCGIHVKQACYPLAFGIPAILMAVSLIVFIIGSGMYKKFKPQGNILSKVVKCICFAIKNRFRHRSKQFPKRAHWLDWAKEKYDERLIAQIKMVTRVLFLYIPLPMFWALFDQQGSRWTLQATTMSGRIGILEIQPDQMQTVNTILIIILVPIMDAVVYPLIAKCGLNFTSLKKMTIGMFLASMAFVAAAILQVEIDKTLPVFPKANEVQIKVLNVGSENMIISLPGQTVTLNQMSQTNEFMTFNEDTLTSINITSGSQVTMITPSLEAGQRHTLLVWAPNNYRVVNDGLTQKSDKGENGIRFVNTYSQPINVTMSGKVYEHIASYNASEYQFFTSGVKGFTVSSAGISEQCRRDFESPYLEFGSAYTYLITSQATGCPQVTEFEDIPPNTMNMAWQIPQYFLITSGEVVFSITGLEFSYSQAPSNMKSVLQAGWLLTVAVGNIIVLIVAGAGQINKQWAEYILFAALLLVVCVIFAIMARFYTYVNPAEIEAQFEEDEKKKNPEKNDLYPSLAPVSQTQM
# Method: as §1
# T1 sequence (P14740 38-767 limits assumed): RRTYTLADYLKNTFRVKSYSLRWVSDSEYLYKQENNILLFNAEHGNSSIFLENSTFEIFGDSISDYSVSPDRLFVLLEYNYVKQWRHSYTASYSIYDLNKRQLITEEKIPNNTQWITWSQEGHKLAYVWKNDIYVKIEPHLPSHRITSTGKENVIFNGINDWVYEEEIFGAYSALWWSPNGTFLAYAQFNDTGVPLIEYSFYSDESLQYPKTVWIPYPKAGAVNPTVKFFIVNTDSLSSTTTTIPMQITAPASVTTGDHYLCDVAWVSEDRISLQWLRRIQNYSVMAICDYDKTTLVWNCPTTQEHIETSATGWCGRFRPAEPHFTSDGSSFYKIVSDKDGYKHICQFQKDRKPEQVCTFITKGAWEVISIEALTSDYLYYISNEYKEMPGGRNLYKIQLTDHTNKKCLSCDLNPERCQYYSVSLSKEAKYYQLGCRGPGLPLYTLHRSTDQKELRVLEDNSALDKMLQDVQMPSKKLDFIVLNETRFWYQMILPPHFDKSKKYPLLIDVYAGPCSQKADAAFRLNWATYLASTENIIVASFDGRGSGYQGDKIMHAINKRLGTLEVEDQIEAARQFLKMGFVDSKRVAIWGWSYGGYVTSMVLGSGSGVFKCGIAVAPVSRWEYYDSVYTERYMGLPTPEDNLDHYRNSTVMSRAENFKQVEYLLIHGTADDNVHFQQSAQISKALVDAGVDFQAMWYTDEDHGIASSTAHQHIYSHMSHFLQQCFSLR
molecule,measurement,setting,value
N[C@@H](CCC(=O)NCC(=O)NCC(=O)NCC(=O)O)C(=O)N1CCSC1 (as salt: trifluoroacetate) [H-Glu(Gly3)-Thia],melting point,,91 to 94 °C
N[C@@H](CCC(=O)NCC(=O)O)C(=O)N1CCSC1 [Glu(Gly)-Thia],Transport of the inhibitor,[1],transported completely
N[C@@H](CCC(=O)NCC(=O)NCC(=O)NCC(=O)NCC(=O)NCC(=O)O)C(=O)N1CCSC1 [H-Glu(Gly5)-Thia],Systemic action (inhibition of plasma-DP IV) after oral administration,plasma-DP IV,no systemic action of the orally administered active ingredient is detectable
NC(CCC(=O)O)C(=O)N1CCSC1 (stereo not drawn) [H-Glu-Thia],Imax: inward currents generated by the transport,PepT1 [2],35 ± 13
same,EC50,PepT1 [3],1.1 mM
N[C@@H](CCCCNC(=O)OCc1ccc([N+](=O)[O-])cc1)C(=O)N1CCSC1 [Lys(Z-NO2)-Thia],Transport of the inhibitor,[1],transported completely
H-Glu(PEG)-Thia,EC50,PepT1 [3],> 10 mM
H-Gly(NHOH)-Thia,Imax: inward currents generated by the transport,PepT1 [2],42 ± 11
same,EC50,PepT1 [3],3.18 mM
